The supplement of paper PMC13380429

Tests used:
Conditions in all cases: 72 h
Caco-2 [1] = test: relative viability EC50 (midpoint between 100% and the lowest measured viability); higher = less toxic
Calu-3 [2] = test: as above
Vero E6 [3] = test: as above
Caco-2 [4] = test: drug sensitivity score (DSS) for viability; higher = more toxic; extreme values may be limits of the assay
Calu-3 [5] = test: as above
Vero E6 [6] = test: as above
Caco-2 [7] = test: cell viability relative to DMSO; higher = less toxic
Calu-3 [8] = test: as above
Vero E6 [9] = test: as above
HepG2 [10] = test: relative viability EC50 (midpoint between 100% and the lowest measured viability); higher = less toxic
U2OS [11] = test: as above
HepG2 [12] = test: drug sensitivity score (DSS) for viability; higher = more toxic; extreme values may be limits of the assay
U2OS [13] = test: as above
HepG2 [14] = test: cell viability relative to DMSO; higher = less toxic
U2OS [15] = test: as above

SMILES	relative viability EC50 (Caco-2 [1])	relative viability EC50 (Calu-3 [2])	relative viability EC50 (Vero E6 [3])	drug sensitivity score (Caco-2 [4])	drug sensitivity score (Calu-3 [5])	drug sensitivity score (Vero E6 [6])	cell viability (Caco-2 [7]; 1 nM)	cell viability (Caco-2 [7]; 10 nM)	cell viability (Caco-2 [7]; 100 nM)	cell viability (Caco-2 [7]; 1000 nM)	cell viability (Caco-2 [7]; 10000 nM)	cell viability (Calu-3 [8]; 1 nM)	cell viability (Calu-3 [8]; 10 nM)	cell viability (Calu-3 [8]; 100 nM)	cell viability (Calu-3 [8]; 1000 nM)	cell viability (Calu-3 [8]; 10000 nM)	cell viability (Vero E6 [9]; 1 nM)	cell viability (Vero E6 [9]; 10 nM)	cell viability (Vero E6 [9]; 100 nM)	cell viability (Vero E6 [9]; 1000 nM)	cell viability (Vero E6 [9]; 10000 nM)	relative viability EC50 (HepG2 [10])	relative viability EC50 (U2OS [11])	drug sensitivity score (HepG2 [12])	drug sensitivity score (U2OS [13])	cell viability (HepG2 [14]; 1 nM)	cell viability (HepG2 [14]; 10 nM)	cell viability (HepG2 [14]; 100 nM)	cell viability (HepG2 [14]; 1000 nM)	cell viability (HepG2 [14]; 10000 nM)	cell viability (U2OS [15]; 1 nM)	cell viability (U2OS [15]; 10 nM)	cell viability (U2OS [15]; 100 nM)	cell viability (U2OS [15]; 1000 nM)	cell viability (U2OS [15]; 10000 nM)
O=C(O)c1cc(-c2ccc(F)cc2F)ccc1O [diflunisal]	> 10 µM	> 10 µM	> 10 µM	0	0	0	93.3%	105%	93.9%	105%	104%	103%	109%	109%	99.6%	95.7%	103%	100%	92.9%	98.4%	97.1%	–	–	–	–	–	–	–	–	–	–	–	–	–	–
CCOP(=S)(OCC)Oc1cc(C)nc(C(C)C)n1 [dimpylate]	> 10 µM	> 10 µM	–	0	0	–	102%	95.4%	103%	93%	93.2%	106%	100%	99.3%	97.7%	96.3%	–	–	–	–	–	> 10 µM	> 10 µM	0	0	92.9%	104%	106%	101%	96.8%	104%	102%	102%	97.9%	99.2%
Oc1ccc(C2CNCCc3c2cc(O)c(O)c3Cl)cc1 (stereo not given) [fenoldopam]	–	> 10 µM	> 10 µM	6.6	0	0	96%	87%	80.6%	76.6%	73.7%	96.5%	110%	105%	109%	107%	101%	99.4%	97.3%	103%	96.7%	> 10 µM	> 10 µM	0	0	104%	102%	95.3%	105%	94.8%	103%	101%	99.1%	102%	103%
O=C1O[C@H](CO)[C@@H](O)[C@H](O)[C@H]1O [gluconolactone]	> 10 µM	> 10 µM	–	0	0	–	109%	106%	102%	95.1%	101%	99.6%	90.5%	100%	97.2%	105%	–	–	–	–	–	> 10 µM	> 10 µM	0	0	90.9%	103%	92.2%	91.2%	94.5%	106%	102%	104%	98.9%	106%
O=C(NCNC(=O)NC1C(=O)NC(=O)N1CO)NC1C(=O)NC(=O)N1CO (stereo not given) [imidurea]	> 10 µM	> 10 µM	–	0	0	–	90.7%	95.4%	98.7%	98%	103%	94.4%	98.1%	104%	103%	95.6%	–	–	–	–	–	> 10 µM	> 10 µM	0.3	0	104%	97.3%	89.8%	98.1%	82.9%	103%	97.3%	102%	98.3%	102%
O=C(Nc1ccncc1)C(=O)c1cn(Cc2ccc(Cl)cc2)c2ccccc12 [indibulin]	> 10 µM	> 10 µM	–	0	0	2	75%	84%	94.9%	82.9%	92.2%	97.9%	95%	110%	102%	104%	75.1%	104%	79.4%	97.3%	66.1%	> 10 µM	> 10 µM	0	0	91.6%	107%	94.9%	91.3%	94.5%	111%	99%	97.2%	95.4%	90.9%
CCCCC(F)(F)[C@@]1(O)CC[C@H]2[C@@H](CC(=O)[C@@H]2CCCCCCC(=O)O)O1 [lubiprostone]	> 10 µM	> 10 µM	–	0	0	–	108%	101%	101%	103%	97.8%	106%	102%	111%	98.6%	98.8%	–	–	–	–	–	–	> 10 µM	–	0	–	–	–	–	–	104%	102%	104%	99.8%	104%
COC(=O)C1=C(C)NC(C)=C(C(=O)OCCN2CCN(C(c3ccccc3)c3ccccc3)CC2)C1c1cccc([N+](=O)[O-])c1 (stereo not given) [manidipine]	–	> 10 µM	> 10 µM	2.5	0.8	0	98.4%	93.9%	104%	94.5%	65.4%	94.6%	103%	104%	91.5%	85.4%	100%	103%	96.7%	100%	93.3%	> 10 µM	–	0.3	1.5	105%	104%	104%	104%	81.4%	98.3%	100%	93.8%	97.6%	71.9%
CC(=O)Oc1c(C)cc(OCC(O)CNC(C)C)c(C)c1C (stereo not given) [metipranolol]	–	> 10 µM	> 10 µM	1.3	0	1.6	73.8%	84.6%	102%	98.7%	70.3%	94.6%	89.8%	97.7%	96.1%	92.9%	103%	107%	94.6%	85.8%	97.5%	> 10 µM	> 10 µM	1.5	0	101%	102%	105%	84%	93.3%	99.1%	97.3%	96.2%	93.9%	93.8%
NCc1c[nH]c(=S)n1[C@H]1CCc2c(F)cc(F)cc2C1 [nepicastat]	–	> 10 µM	> 10 µM	–	0	0	–	–	–	–	–	87.7%	95.3%	98.6%	103%	97.6%	105%	104%	106%	96.7%	108%	> 10 µM	> 10 µM	0	0	100%	95.2%	93.8%	102%	96.2%	101%	105%	99%	106%	97.2%
C[C@@]12C[C@@]3(O)O[C@@H](O1)[C@]1(COC(=O)c4ccccc4)[C@H]3C[C@@]12O[C@@H]1O[C@H](CO)[C@@H](O)[C@H](O)[C@H]1O [paeoniflorin]	> 10 µM	> 10 µM	–	0	0	–	103%	101%	96%	93.5%	96%	91%	98.6%	107%	87%	98.7%	–	–	–	–	–	> 10 µM	> 10 µM	0	0	100%	100%	102%	107%	95.9%	101%	99.8%	104%	102%	101%
CCCCCCCCCCCCCCCC(=O)OC(CC(=O)[O-])C[N+](C)(C)C (stereo not given) [palmitoylcarnitine]	> 10 µM	> 10 µM	–	0	0.6	1.1	110%	102%	102%	92.5%	93%	98.3%	94.3%	100%	97%	84.2%	96.2%	104%	104%	99.6%	73%	> 10 µM	> 10 µM	0	0	99.3%	96.8%	107%	95.8%	94.9%	103%	104%	99.9%	100%	102%
CCCOC(=O)c1ccccc1 [propyl-benzoate]	–	> 10 µM	> 10 µM	–	0	0	–	–	–	–	–	98.5%	90.6%	98.2%	99.1%	102%	94.3%	94.6%	91.8%	90.3%	101%	> 10 µM	–	0	–	98.7%	98.2%	94.7%	93%	94.4%	–	–	–	–	–
Cc1cc(/C=C/C#N)cc(C)c1Nc1ccnc(Nc2ccc(C#N)cc2)n1 [rilpivirine]	–	> 10 µM	–	3.1	0	1.5	97.8%	98%	93.3%	87.3%	61.4%	97%	93.7%	99.8%	95.6%	92.7%	100%	100%	96.8%	98.5%	70.5%	2.69 µM	> 10 µM	3.2	1.1	98.9%	99.8%	99.5%	96.9%	47.7%	94.8%	99.1%	99.6%	95.4%	80.5%
COc1ccc2c(O[C@@H]3C[C@H]4C(=O)N[C@]5(C(=O)NS(=O)(=O)C6CC6)C[C@H]5/C=C\CCCCN(C)C(=O)[C@@H]4C3)cc(-c3nc(C(C)C)cs3)nc2c1C [simeprevir]	–	> 10 µM	> 10 µM	1.1	0	0	94.8%	100%	112%	102%	70.8%	94.9%	99.7%	88.7%	100%	102%	102%	105%	95.4%	101%	102%	> 10 µM	> 10 µM	0.4	0	102%	99.4%	92.7%	101%	81.5%	104%	98.8%	99.9%	99.4%	105%
COc1cc2c(N3CCN(C(=O)Nc4ccc(OC(C)C)cc4)CC3)ncnc2cc1OCCCN1CCCCC1 [tandutinib]	> 10 µM	> 10 µM	–	0	0	–	113%	102%	112%	105%	98.2%	109%	97%	94.7%	108%	111%	–	–	–	–	–	> 10 µM	–	0.1	–	110%	112%	112%	109%	84.1%	–	–	–	–	–
